# Reference: patent US9446039B2, “Aminoheteroaryl compounds as MTH1 inhibitors” (CEMM—FORSCHUNGSZENTRUM FÜR MOLEKULARE MEDIZIN GMBH, priority 2012, dated 2016)
# What was measured:
# Assay type in all cases: binding
# [1] = molecular target: SW480 colon carcinoma cells lysate proteins (Homo sapiens, UniProt P67936); settings: PreyGene TPM4
# [2] = molecular target: SW480 colon carcinoma cells lysate proteins (Homo sapiens, UniProt P49591); settings: PreyGene SARS
# [3] = molecular target: T1, SW480 colon carcinoma cells lysate proteins (Homo sapiens, UniProt B2RPK0); settings: PreyGene HMGB1P1
# T1 sequence (B2RPK0 1-211): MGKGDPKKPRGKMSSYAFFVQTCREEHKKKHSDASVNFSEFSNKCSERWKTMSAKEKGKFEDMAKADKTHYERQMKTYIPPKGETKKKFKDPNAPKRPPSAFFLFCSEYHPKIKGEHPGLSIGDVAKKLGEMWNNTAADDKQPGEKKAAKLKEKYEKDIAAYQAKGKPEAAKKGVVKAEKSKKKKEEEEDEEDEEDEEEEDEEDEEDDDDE
# [4] = molecular target: T2, SW480 colon carcinoma cells lysate proteins (Homo sapiens, UniProt Q16543); settings: PreyGene CDC37
# T2 sequence (Q16543 1-378): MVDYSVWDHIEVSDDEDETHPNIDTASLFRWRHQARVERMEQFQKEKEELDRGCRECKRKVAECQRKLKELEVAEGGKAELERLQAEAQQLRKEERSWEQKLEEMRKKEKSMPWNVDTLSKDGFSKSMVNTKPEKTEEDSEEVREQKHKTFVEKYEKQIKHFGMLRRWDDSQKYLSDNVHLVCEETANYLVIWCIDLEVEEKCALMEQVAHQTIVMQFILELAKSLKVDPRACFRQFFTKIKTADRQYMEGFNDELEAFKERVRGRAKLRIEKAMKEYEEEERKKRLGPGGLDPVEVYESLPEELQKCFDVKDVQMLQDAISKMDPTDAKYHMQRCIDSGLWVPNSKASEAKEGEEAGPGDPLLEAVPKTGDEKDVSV
# [5] = molecular target: SW480 colon carcinoma cells lysate proteins (Homo sapiens, UniProt Q00610); settings: PreyGene CLTC; SW480 cells
# Chain of SW480 colon carcinoma cells lysate proteins (Homo sapiens, UniProt Q00610) (Q00610 whole entry): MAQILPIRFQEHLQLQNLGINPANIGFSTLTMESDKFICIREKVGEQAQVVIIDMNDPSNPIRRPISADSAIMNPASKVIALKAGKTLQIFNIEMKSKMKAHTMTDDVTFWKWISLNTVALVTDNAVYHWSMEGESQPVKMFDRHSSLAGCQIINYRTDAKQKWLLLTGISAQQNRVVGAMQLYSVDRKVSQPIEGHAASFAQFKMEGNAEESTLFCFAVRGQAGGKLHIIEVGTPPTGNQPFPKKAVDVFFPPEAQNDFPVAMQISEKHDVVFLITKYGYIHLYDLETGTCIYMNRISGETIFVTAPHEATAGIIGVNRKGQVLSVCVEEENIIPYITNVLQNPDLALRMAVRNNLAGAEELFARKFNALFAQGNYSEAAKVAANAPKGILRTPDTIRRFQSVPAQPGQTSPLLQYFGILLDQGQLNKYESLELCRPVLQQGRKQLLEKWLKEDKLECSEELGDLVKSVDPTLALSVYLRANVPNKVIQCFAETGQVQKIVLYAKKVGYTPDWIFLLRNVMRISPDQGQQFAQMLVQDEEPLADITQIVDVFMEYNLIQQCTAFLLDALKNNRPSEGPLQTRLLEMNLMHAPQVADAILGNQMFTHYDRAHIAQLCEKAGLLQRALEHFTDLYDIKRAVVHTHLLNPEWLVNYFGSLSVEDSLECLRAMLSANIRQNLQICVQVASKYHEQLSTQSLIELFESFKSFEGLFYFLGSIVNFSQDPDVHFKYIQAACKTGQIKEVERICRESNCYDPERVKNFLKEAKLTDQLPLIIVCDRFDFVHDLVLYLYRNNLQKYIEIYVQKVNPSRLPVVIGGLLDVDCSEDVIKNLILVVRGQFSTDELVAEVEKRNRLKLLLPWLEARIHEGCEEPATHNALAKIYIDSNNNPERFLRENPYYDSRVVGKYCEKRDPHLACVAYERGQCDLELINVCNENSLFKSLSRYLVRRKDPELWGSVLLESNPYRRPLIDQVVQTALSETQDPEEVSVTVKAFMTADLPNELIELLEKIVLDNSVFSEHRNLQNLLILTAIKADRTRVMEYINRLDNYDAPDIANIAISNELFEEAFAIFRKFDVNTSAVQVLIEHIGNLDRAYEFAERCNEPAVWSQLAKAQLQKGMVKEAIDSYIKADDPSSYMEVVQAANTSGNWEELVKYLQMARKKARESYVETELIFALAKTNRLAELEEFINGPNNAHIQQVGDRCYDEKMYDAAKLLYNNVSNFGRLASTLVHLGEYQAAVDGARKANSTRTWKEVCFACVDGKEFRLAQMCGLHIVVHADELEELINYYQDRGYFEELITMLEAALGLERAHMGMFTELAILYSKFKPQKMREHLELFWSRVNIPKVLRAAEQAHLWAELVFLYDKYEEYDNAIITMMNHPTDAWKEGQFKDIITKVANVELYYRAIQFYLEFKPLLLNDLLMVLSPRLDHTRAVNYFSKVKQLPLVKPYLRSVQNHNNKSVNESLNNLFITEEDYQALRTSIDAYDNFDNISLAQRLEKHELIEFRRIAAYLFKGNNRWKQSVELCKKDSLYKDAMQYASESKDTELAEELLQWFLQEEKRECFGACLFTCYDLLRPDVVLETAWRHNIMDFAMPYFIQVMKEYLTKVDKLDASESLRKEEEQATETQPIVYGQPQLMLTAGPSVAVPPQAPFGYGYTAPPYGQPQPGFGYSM
# [6] = molecular target: T3, SW480 colon carcinoma cells lysate proteins (Homo sapiens, UniProt O00764); settings: PreyGene PDXK
# T3 sequence (O00764 1-312): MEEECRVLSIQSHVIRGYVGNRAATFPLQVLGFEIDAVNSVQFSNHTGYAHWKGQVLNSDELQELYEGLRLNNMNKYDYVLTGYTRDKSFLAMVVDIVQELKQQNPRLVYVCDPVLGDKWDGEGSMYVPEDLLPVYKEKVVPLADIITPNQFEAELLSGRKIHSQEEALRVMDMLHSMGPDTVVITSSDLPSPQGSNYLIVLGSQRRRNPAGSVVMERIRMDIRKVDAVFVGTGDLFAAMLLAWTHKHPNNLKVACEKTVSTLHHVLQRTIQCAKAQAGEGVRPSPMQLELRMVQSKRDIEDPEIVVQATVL
# [7] = molecular target: T4, SW480 colon carcinoma cells lysate proteins (Homo sapiens, UniProt P26639); settings: PreyGene TARS
# T4 sequence (P26639 1-723): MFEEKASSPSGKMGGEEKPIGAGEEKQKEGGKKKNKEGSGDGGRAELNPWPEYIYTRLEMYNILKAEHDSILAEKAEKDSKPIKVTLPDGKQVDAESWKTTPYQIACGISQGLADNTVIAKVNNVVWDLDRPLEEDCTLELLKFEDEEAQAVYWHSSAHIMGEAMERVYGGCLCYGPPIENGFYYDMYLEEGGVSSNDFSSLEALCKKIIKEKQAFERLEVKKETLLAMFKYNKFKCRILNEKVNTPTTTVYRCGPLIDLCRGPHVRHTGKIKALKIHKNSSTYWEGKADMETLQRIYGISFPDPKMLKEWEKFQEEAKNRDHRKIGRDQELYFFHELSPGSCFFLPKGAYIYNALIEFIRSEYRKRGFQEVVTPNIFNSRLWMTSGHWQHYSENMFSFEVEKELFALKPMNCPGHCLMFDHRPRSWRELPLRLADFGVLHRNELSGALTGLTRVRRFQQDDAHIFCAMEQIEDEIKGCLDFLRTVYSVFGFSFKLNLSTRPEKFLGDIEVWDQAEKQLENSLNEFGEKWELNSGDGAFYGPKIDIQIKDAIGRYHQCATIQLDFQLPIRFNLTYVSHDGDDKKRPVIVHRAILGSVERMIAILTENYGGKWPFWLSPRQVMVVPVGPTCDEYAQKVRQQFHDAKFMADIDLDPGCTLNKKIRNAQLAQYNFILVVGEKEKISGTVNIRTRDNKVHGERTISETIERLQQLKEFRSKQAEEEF
# Chain of SW480 colon carcinoma cells lysate proteins (Homo sapiens, UniProt P49591) (P49591 whole entry, looked up): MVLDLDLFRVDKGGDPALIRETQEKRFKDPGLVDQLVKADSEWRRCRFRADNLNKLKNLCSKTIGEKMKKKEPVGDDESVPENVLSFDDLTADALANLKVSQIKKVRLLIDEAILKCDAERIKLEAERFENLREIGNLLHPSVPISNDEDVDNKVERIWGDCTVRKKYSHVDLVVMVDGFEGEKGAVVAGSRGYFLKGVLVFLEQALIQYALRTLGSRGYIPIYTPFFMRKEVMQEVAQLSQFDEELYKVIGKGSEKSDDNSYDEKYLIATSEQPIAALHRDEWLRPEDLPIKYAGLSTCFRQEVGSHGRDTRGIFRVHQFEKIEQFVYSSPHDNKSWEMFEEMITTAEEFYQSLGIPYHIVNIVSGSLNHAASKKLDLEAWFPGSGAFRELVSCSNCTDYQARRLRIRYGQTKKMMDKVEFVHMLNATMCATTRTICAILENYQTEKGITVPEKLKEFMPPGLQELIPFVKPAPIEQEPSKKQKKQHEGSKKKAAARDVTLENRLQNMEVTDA
# Chain of SW480 colon carcinoma cells lysate proteins (Homo sapiens, UniProt P67936) (P67936 whole entry): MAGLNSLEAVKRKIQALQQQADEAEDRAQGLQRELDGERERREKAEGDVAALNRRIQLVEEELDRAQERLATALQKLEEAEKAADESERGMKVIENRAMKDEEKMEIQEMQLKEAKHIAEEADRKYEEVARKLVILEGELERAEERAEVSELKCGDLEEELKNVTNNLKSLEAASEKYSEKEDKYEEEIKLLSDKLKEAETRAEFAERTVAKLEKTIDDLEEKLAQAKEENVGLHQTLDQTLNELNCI
compound,measurement,setting,value
C[C@H](Oc1cc(-c2cnn(C3CCNCC3)c2)cnc1N)c1c(Cl)ccc(F)c1Cl [(5)-crizotinib],AvgP,[1],0.4193
same,SC.Exp. 1-1,[1],5
same,SC.Exp. 1-2,[1],2
same,SC.Exp. 2-1,[1],0
same,SC.Exp. 2-2,[1],0
same,Sum (SC.Exp.),[1],7
same,AvgP,[2],0.4649
same,SC.Exp. 1-1,[2],4
same,SC.Exp. 1-2,[2],4
same,SC.Exp. 2-1,[2],0
same,SC.Exp. 2-2,[2],0
same,Sum (SC.Exp.),[2],8
same,AvgP,[3],0.3829
same,SC.Exp. 1-1,[3],2
same,SC.Exp. 1-2,[3],2
same,SC.Exp. 2-1,[3],0
same,SC.Exp. 2-2,[3],0
same,Sum (SC.Exp.),[3],4
same,AvgP,[4],0.4343
same,SC.Exp. 1-1,[4],3
same,SC.Exp. 1-2,[4],3
same,SC.Exp. 2-1,[4],0
same,SC.Exp. 2-2,[4],0
same,Sum (SC.Exp.),[4],6
same,AvgP,[5],0
same,SC.Exp. 1-1,[5],16
same,SC.Exp. 1-2,[5],14
same,SC.Exp. 2-1,[5],5
same,SC.Exp. 2-2,[5],7
same,SC.Exp. Sum,[5],42
same,AvgP,[6],0.2207
same,SC.Exp. 1-1,[6],3
same,SC.Exp. 1-2,[6],0
same,SC.Exp. 2-1,[6],0
same,SC.Exp. 2-2,[6],0
same,Sum (SC.Exp.),[6],3
same,AvgP,[7],0.4614
same,SC.Exp. 1-1,[7],5
same,SC.Exp. 1-2,[7],4
same,SC.Exp. 2-1,[7],0
same,SC.Exp. 2-2,[7],0
same,Sum (SC.Exp.),[7],9
